Measured values published in PubChem BioAssay AID200 (DTP/NCI, 2004).
“And” between values parts separate entries of the source, which are not always exact repeats. Equal entries are not always repeated. Inconclusive results and toxic doses are left out.

Tested on: B6C3F1 mice, B16 melanoma ip, median survival T/C
Assay: NCI In Vivo Anticancer Drug Screen. Data for tumor model B16 Melanoma (intraperitoneal) in B6C3F1 mice
Conditions: endpoint: median survival time, higher = longer survival
How it was run: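 Tumor-bearing mice received test compound; a separate group got vehicle only. Survival was then compared, with results reported as treated over control.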

[1] = dose: 50.0 mg/kg/injection, schedule: Q01DX009 (ip), vehicle: saline with Tween-80
[2] = dose: 100.0 mg/kg/injection, schedule: Q01DX009 (ip), vehicle: saline with Tween-80
[3] = dose: 200.0 mg/kg/injection, schedule: Q01DX009 (ip), vehicle: saline with Tween-80
[4] = dose: 400.0 mg/kg/injection, schedule: Q01DX009 (ip), vehicle: saline with Tween-80
[5] = dose: 12.5 mg/kg/injection, schedule: Q01DX009 (ip), vehicle: Klucel (hydroxypropylcellulose) (HPC)
[6] = dose: 25.0 mg/kg/injection, schedule: Q01DX009 (ip), vehicle: Klucel (hydroxypropylcellulose) (HPC)
[7] = dose: 50.0 mg/kg/injection, schedule: Q01DX009 (ip), vehicle: Klucel (hydroxypropylcellulose) (HPC)
[8] = dose: 100.0 mg/kg/injection, schedule: Q01DX009 (ip), vehicle: Klucel (hydroxypropylcellulose) (HPC)
[9] = dose: 200.0 mg/kg/injection, schedule: Q01DX009 (ip), vehicle: Klucel (hydroxypropylcellulose) (HPC)
[10] = dose: 25.0 mg/kg/injection, schedule: Q01DX009 (ip), vehicle: saline
[11] = dose: 200.0 mg/kg/injection, schedule: Q01DX009 (ip), vehicle: saline
[12] = dose: 25.0 mg/kg/injection, schedule: Q01DX009 (ip), vehicle: saline with Tween-80

With `CN=C(NC)c1ccc(NC(=O)/C=C\c2ccc(/C=C/C(=O)Nc3ccc(C(=NC)NC)cc3)cc2)cc1` the T/C (dose: 1.56 mg/kg/injection, schedule: Q01DX009 (ip), vehicle: Klucel (hydroxypropylcellulose) (HPC)) was 110 % of control, the T/C (dose: 3.12 mg/kg/injection, schedule: Q01DX009 (ip), vehicle: Klucel (hydroxypropylcellulose) (HPC)) was 107 % of control and the T/C (dose: 6.25 mg/kg/injection, schedule: Q01DX009 (ip), vehicle: Klucel (hydroxypropylcellulose) (HPC)) was 90 % of control.

In the case of `COc1cc2cc(c1Cl)N(C)C(=O)CC(OC(=O)C(C)NC(=O)C(C)C)C1(C)OC1C(C)C1CC(O)(NC(=O)O1)C(OC)/C=C/C=C(C)C2OC` (configuration not stated), the T/C (dose: 4.0 micrograms/kg/injection, schedule: Q01DX009 (ip), vehicle: distilled water + alcohol) is reported as 102 % of control and the T/C (dose: 8.0 micrograms/kg/injection, schedule: Q01DX009 (ip), vehicle: distilled water + alcohol) is reported as 114 % of control.

For `CC(C)(C)c1ccc(C(=O)N2CCOC23CCCCC3)cc1`, the T/C [1] was 91 % of control and 101 % of control, the T/C [2] was 98 % of control and 107 % of control and the T/C [3] was 94 % of control and 104 % of control. The T/C [4] was 91 % of control and 104 % of control and the T/C (dose: 800.0 mg/kg/injection, schedule: Q01DX009 (ip), vehicle: saline with Tween-80) was 92 % of control and 98 % of control.

For `CC(C)(C)OC(=O)NCCCCC(NC(=O)OC(C)(C)C)C(=O)O` (configuration not stated), the T/C [1] was 97 % of control, the T/C [2] was 104 % of control and the T/C [3] was 95 % of control.

`Cc1cc(N2C(=O)CCSC2=S)ccc1Cl` was tested, and the T/C [5] was 92 % of control and 95 % of control, the T/C [6] was 90 % of control and 98 % of control and the T/C [7] was 94 % of control. For the same molecule, the T/C [8] was 94 % of control and 98 % of control and the T/C [9] was 90 % of control and 97 % of control.

With `COc1cc2cc(c1Cl)N(C)C(=O)C[C@H](OC(=O)[C@H](C)N(C)C(C)=O)[C@]1(C)O[C@H]1[C@H](C)[C@@H]1C[C@@](O)(NC(=O)O1)[C@H](OC)C=C/C=C(\C)C2` the T/C (dose: 1.0 micrograms/kg/injection, schedule: Q01DX009 (ip), vehicle: saline + alcohol) was 121 % of control, the T/C (dose: 2.0 micrograms/kg/injection, schedule: Q01DX005 (iv), vehicle: saline + alcohol) was 107 % of control and the T/C (dose: 4.0 micrograms/kg/injection, schedule: Q01DX005 (iv), vehicle: saline + alcohol) was 106 % of control. The T/C (dose: 8.0 micrograms/kg/injection, schedule: Q01DX005 (iv), vehicle: saline + alcohol) was 100 % of control and 106 % of control, the T/C (dose: 64.0 micrograms/kg/injection, schedule: Q01DX005 (iv), vehicle: saline + alcohol) was 112 % of control and 113 % of control and the T/C (dose: 128.0 micrograms/kg/injection, schedule: Q01DX005 (iv), vehicle: saline + alcohol) was 120 % of control. For the same molecule, the T/C (dose: 256.0 micrograms/kg/injection, schedule: Q01DX005 (iv), vehicle: saline + alcohol) was 152 % of control.

In the case of `CN(C)CC(O)c1cc2ccccc2c2ccccc12` (configuration not stated), the T/C (dose: 12.5 mg/kg/injection, schedule: Q01DX009 (ip), vehicle: saline) is reported as 103 % of control and the T/C [10] is reported as 103 % of control.

For `C[C@@H]1CN(C(=O)CCOS(C)(=O)=O)[C@@H](C)CN1C(=O)CCOS(C)(=O)=O`, the T/C [11] was 172 % of control.

For `N#CCCN(C(=S)Nc1cccc(C(F)(F)F)c1)C1CCCCC1`, the T/C (dose: 12.5 mg/kg/injection, schedule: Q01DX009 (ip), vehicle: suspension in saline) was 102 % of control, the T/C (dose: 25.0 mg/kg/injection, schedule: Q01DX009 (ip), vehicle: suspension in saline) was 100 % of control and the T/C (dose: 50.0 mg/kg/injection, schedule: Q01DX009 (ip), vehicle: suspension in saline) was 101 % of control. For the same molecule, the T/C [2] was 113 % of control, the T/C (dose: 100.0 mg/kg/injection, schedule: Q01DX009 (ip), vehicle: suspension in saline) was 107 % of control and the T/C [3] was 94 % of control. For the same molecule, the T/C (dose: 200.0 mg/kg/injection, schedule: Q01DX009 (ip), vehicle: suspension in saline) was 113 % of control, the T/C [4] was 89 % of control and the T/C (dose: 400.0 mg/kg/injection, schedule: Q01DX009 (ip), vehicle: suspension in saline) was 103 % of control.

In the case of `CCCCCCC(=O)CC(SCC)c1ccccc1Cl` (configuration not stated), the T/C [12] is reported as 86 % of control, the T/C [2] is reported as 93 % of control and the T/C [4] is reported as 96 % of control.

`COc1cc(OC)c(OC)cc1/C=C\c1ccnc2ccccc12` was tested, and the T/C [5] was 98 % of control, the T/C [6] was 105 % of control and the T/C [7] was 108 % of control and 111 % of control. For the same molecule, the T/C [8] was 120 % of control and 107 % of control, the T/C [9] was 97 % of control and the T/C (dose: 400.0 mg/kg/injection, schedule: Q01DX009 (ip), vehicle: Klucel (hydroxypropylcellulose) (HPC)) was 151 % of control.

For `COc1cc(C2c3cc4c(cc3C(O)C(CO)C2CO)OCO4)cc(OC)c1OC` (configuration not stated), the T/C (dose: 12.5 mg/kg/injection, schedule: Q01DX009 (ip), vehicle: saline with Tween-80) was 111 % of control and 113 % of control and the T/C [12] was 113 % of control.

In the case of `COC1C(OC(=O)/C=C/C=C/C=C/C=C/C(=O)O)CCC2(CO2)C1C1(C)OC1CC=C(C)C` (configuration not stated), the T/C [10] is reported as 117 % of control, the T/C (dose: 50.0 mg/kg/injection, schedule: Q01DX009 (ip), vehicle: saline) is reported as 113 % of control and the T/C (dose: 100.0 mg/kg/injection, schedule: Q01DX009 (ip), vehicle: saline) is reported as 119 % of control. For the same molecule, the T/C [11] was 113 % of control.
